Experimental data reported in patent US11612595B2, “Compositions and methods for treating rheumatoid arthritis” (Generos Biopharma Ltd., priority 2017, dated 2023).

How the values were obtained:
[1] = weight changes in mouse CIA model; assay type: in vivo, DBA/1J mice
Description: FIGS. 7A and 78 show graphs depicting weight changes in five groups of mouse CIA models under different treatment schemes. DBA/1 mice were randomly divided into 9 groups with 10 mice each group. On day 0 and 21, all of them except blank control group were inoculated with 50 ul collagen plus CFA mixture subcutaneously at back flank near tail. The weights of all 90 mice were monitored 3 times a week throughout the experiment.
Eight of nine groups (10 mice in each group) of male DBA/1J mice (age 9-10 weeks. H-2q haplotype) were subject to CIA model induction and then to different treatment schemes. The group of mice without CIA model induction was used as a control (Blank). Specifically, Bovine type II collagen (Chondrex) was mixed with Freund's complete adjuvant (CFA) (Sigma) and injected s.c. to flank near tail of the mice twice (the second injection was made 21 days after the first injection) to create CIA model mice. The eight groups of CIA model mice were separated into four prophylactic groups and four therapeutic groups, with each group subjected to different treatments.
In the four prophylactic groups, daily treatments started from the date when the first CIA induction injection was made. The first of the four prophylactic groups of CIA model mice were treated with 30% PEG300 (containing 4% DMSO-all 30% PEG300 in the application contains 4% DMSO) solution via intraperitoneal injection as controls (Model). The second of the four prophylactic groups of CIA model mice were treated with nicotinohydrazide (Calbiochem) 10 mg/kg in 30% PEG300 solution via intraperitoneal injection (573108 10 mg/kg). The third of the four prophylactic groups of CIA model mice were treated with nicotinohydrazide (Calbiochem) 5 mg/kg in 30% PEG300 solution via intraperitoneal injection (573108 5 mg/kg). The last of the four prophylactic groups of CIA model mice were treated with Tofacitinib (Selleckchem) 5 mg/kg in 30% PEG300 solution via intraperitoneal injection (Tofacitinib 5 mg/kg).
In the four therapeutic groups, daily treatments started from the date when the second CIA induction injection was made. The first of the four therapeutic groups of CIA model mice were treated with 30% PEG300 solution via intraperitoneal injection as controls (Model). The second of the four therapeutic groups of CIA model mice were treated with nicotinohydrazide (Calbiochem) 10 mg/kg in 30% PEG300 solution via intraperitoncal injection (573108 10 mg/kg). The third of the four therapeutic groups of CIA model mice were treated with nicotinohydrazide (Calbiochem) 5 mg/kg in 30% PEG300 solution via intraperitoneal injection (573108 5 mg/kg). The last of the four therapeutic groups of CIA model mice were treated with Tofacitinib (Selleckchem) 5 mg/kg in 30% PEG300 solution via intraperitoncal injection (Tofacitinib 5 mg/kg).
The inventors collected data of the weight, and clinical scores of the mice every 2-3 days and performed statistic analysis. The method used in the statistic analysis was Student's t test, unpaired, two-tailed analysis.

SH2 domain of STAT1 = biological target: T1, SH2 domain of STAT1 (Homo sapiens, UniProt P42224); details: read-out: IC50 towards the SH2 domain of STAT1; cited from earlier work
T1 sequence (P42224 1-750): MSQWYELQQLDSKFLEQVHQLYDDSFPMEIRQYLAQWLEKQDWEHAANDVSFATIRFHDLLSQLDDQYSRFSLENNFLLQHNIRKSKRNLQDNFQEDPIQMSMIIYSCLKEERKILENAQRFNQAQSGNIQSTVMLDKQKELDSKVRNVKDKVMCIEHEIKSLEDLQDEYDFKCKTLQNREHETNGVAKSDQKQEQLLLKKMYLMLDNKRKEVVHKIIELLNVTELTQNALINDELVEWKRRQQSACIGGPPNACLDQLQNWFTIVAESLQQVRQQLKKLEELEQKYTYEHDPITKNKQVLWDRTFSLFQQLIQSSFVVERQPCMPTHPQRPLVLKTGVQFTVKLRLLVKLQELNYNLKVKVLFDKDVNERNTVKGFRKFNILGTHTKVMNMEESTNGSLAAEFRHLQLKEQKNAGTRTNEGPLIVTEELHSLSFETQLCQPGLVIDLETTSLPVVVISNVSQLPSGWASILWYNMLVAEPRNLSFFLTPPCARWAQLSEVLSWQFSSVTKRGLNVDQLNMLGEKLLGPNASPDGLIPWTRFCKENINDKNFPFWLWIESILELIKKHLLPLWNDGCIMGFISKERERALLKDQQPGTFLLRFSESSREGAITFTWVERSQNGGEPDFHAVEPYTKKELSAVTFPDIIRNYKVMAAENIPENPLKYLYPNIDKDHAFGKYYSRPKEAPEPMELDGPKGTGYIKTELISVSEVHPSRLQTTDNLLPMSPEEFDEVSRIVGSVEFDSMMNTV

STAT5b SH2 domain = biological target: T2, STAT5b SH2 domain (Homo sapiens, UniProt P51692); details: read-out: IC50 against STAT5b SH2 domain EPO peptide binding activity; cited from earlier work
T2 sequence (P51692 1-787): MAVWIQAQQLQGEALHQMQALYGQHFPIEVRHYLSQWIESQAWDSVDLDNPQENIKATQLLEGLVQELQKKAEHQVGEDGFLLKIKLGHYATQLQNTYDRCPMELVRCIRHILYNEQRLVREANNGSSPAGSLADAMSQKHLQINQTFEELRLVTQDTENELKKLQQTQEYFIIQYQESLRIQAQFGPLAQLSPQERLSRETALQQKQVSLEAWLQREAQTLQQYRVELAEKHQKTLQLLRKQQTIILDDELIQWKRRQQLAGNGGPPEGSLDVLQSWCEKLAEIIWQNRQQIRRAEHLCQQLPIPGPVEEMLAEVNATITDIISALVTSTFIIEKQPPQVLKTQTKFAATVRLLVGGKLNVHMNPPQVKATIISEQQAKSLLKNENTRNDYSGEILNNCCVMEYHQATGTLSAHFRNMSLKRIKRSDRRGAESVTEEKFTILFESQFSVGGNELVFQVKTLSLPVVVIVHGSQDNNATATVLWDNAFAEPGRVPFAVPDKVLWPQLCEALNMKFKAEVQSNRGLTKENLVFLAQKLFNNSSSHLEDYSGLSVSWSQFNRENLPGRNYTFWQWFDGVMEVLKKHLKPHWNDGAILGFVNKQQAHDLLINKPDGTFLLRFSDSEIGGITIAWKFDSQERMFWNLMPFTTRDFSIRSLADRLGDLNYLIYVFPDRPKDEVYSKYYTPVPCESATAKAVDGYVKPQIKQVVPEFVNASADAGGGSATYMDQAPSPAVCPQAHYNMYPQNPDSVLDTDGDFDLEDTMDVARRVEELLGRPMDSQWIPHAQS

[2] = prophylactic groups, 5 mg/kg i.p. daily
[3] = prophylactic groups, 10 mg/kg i.p. daily
[4] = therapeutic groups, 5 mg/kg i.p. daily

trend of weight changes, p vs Model [1, 2]: 0.4638
trend of weight changes, p vs Tofacitinib 5 mg/kg [1, 2]: 0.0136
trend of weight changes, p vs Model [1, 3]: 0.32
trend of weight changes, p vs Tofacitinib 5 mg/kg [1, 3]: 0.0207
trend of weight changes, p vs Model [1, 4]: < 0.0001
trend of weight changes, p vs Tofacitinib 5 mg/kg [1, 4]: 0.0006
trend of weight changes, p vs Model ([1]; therapeutic groups, 10 mg/kg i.p. daily): < 0.0001
Structure (SMILES): O=C(N/N=C/c1coc2ccccc2c1=O)c1cccnc1 [nicotinohydrazide, N′-((4-Oxo-4H-chromen-3-yl)methylene)nicotinohydrazide]
IC50 (SH2 domain of STAT1): > 500 µM
IC50 (STAT5b SH2 domain): 47 µM
